The text below walks through data of patent US8471005B2 (Cephalon, Inc., priority 2008, dated 2013).

The target in experiment [1] is T1, JAK2 (Homo sapiens, UniProt O60674).
T1 construct: host or cells: baculovirus expression system
The experiment can be described thus: Recombinant Human JAK2 Kinase Assay (TRF). Particulars: read-out: JAK2 Potency. It counts as biochemical. An outline of the steps: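 TRF read-out: Eu-N1 PY100 anti-phosphotyrosine antibody detects product. Enzyme is baculovirus-expressed JAK2 at 15 ng/ml; substrate is a biotinyl 15-mer peptide bound to Neutravidin-coated wells. Buffer 20 mM HEPES pH 7.2, 0.2 μM ATP, 1 mM MnCl2, 0.1% BSA, 2.5% DMSO final; 20 min, RT.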

For experiment [2], the target named is T2, ALK (Homo sapiens, UniProt Q9UM73).
T2 construct: host or cells: baculovirus expression system
The experiment in a line: ALK Kinase Assay (ELISA/TRF, PLC-γ substrate). It counts as biochemical. The conditions noted are these: read-out: ALK Potency. An outline of the steps: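 First, plates are coated with substrate (phospholipase C-γ, 10 μg/mL, TBS). Next, 30 ng/ml ALK initiates phosphorylation for 15 min at 37° C. Then Eu-N1 PT66 antibody is added for detection, and a nonlinear dose-response fit of percent inhibition yields IC50.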

The mark [3] stands for this setting: JAK2 kinase inhibition, 0.2 μM ATP.
Where [4] appears, read: ALK kinase inhibition, 1 μM ATP.

Read-outs that look alike come from different tables or passages of the source.

T1 sequence (O60674 whole entry): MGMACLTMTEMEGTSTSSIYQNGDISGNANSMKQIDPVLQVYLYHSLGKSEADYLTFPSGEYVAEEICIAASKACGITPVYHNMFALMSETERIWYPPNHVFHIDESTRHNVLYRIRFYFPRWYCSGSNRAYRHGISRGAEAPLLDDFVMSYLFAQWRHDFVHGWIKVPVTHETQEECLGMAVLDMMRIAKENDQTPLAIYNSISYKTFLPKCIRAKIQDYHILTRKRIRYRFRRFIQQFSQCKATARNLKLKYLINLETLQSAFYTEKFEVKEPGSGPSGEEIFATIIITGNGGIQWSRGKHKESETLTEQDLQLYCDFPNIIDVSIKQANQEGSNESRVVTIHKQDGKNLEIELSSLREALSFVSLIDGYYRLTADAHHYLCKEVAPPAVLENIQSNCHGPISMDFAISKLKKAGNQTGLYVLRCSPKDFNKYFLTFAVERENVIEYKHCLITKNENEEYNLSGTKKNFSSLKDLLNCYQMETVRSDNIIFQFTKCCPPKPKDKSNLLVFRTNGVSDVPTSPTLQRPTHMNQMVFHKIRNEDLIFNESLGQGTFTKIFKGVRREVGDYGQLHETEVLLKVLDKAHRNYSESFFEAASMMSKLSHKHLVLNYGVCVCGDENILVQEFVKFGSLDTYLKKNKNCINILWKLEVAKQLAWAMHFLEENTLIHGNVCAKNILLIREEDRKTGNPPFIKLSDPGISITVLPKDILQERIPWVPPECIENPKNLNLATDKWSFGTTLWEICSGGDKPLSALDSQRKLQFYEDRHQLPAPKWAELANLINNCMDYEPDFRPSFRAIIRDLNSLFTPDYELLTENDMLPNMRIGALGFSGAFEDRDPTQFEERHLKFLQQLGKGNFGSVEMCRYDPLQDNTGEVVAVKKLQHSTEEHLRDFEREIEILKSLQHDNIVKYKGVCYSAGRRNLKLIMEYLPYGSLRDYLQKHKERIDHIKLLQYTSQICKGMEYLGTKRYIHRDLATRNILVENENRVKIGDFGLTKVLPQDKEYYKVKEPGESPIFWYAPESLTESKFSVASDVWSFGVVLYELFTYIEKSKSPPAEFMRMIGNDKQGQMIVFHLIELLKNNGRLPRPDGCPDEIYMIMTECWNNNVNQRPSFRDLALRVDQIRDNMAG
T2 sequence (Q9UM73 19-1620): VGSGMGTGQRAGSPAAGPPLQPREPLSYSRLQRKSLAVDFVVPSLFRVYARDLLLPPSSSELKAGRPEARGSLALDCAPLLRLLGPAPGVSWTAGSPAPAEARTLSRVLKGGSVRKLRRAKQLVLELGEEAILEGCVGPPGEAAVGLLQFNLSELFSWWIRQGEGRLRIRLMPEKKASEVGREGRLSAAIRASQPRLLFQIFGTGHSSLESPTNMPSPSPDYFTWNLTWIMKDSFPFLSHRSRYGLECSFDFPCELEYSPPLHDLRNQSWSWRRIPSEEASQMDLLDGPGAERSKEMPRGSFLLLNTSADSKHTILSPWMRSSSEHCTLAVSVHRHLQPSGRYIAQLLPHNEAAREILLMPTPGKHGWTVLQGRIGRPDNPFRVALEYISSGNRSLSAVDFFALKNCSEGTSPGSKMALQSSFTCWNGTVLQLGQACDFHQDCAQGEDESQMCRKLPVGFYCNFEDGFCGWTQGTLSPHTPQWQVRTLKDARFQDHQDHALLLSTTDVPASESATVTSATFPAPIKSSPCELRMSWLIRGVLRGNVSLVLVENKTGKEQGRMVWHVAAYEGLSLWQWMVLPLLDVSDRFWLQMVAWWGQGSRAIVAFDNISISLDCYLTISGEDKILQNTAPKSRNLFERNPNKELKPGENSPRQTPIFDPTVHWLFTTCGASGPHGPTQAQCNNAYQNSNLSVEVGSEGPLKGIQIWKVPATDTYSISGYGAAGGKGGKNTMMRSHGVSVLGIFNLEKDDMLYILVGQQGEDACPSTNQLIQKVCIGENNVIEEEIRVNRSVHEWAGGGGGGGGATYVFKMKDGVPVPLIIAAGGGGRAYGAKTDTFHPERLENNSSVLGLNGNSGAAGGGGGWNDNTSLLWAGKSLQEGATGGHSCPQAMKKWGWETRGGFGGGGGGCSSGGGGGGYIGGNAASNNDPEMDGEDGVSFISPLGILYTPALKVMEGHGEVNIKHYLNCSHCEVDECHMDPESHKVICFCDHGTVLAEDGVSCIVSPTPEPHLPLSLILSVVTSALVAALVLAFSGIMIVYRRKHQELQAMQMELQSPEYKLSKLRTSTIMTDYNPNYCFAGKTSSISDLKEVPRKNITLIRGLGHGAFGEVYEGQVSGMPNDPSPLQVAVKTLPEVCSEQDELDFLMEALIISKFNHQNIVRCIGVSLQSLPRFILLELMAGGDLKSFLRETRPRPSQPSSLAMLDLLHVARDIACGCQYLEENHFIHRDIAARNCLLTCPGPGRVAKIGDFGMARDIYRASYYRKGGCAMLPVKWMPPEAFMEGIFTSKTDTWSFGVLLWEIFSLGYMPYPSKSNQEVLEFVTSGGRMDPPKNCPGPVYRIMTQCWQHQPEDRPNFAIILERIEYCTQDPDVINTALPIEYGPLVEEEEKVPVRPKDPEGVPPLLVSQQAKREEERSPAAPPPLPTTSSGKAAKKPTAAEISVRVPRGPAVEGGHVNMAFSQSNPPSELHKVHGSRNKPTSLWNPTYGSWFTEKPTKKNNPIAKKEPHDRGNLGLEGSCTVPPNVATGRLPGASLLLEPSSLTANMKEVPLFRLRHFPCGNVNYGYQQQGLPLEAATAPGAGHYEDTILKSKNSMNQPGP

For “[7-(4-Methanesulfonyl-phenyl)-pyrrolo[2,1-f][1,2,4]triazin-2-yl]-(4-piperidin-1-yl-phenyl)-amine [Example 85]”, the IC50 in experiment [1] (JAK2 Kinase Inhibition) is less than 100 nM; in experiment [2] (ALK Kinase Inhibition), more than 10000 nM.
As for “[7-(4-Methanesulfonyl-phenyl)-pyrrolo[2,1-f][1,2,4]triazin-2-yl]-[2-methoxy-4-(4-methyl-piperazin-1-yl)-phenyl]-amine [Example 1126]”, the IC50 in experiment [1] (setting [3]) and in experiment [2] (setting [4]) was less than 100 nM each time.
For the substance “[7-(6-Methoxy-pyridin-3-yl)-pyrrolo[2,1-f][1,2,4]triazin-2-yl]-(2-methyl-1,2,3,4-tetrahydro-isoquinolin-7-yl)-amine [Example 985]”, the IC50 in experiment [1] (setting [3]) and in experiment [2] (setting [4]) was less than 100 nM throughout.
“{6-[7-(3-tert-Butylsulfamoyl-phenyl)-pyrrolo[2,1-f][1,2,4]triazin-2-yl amino]-2-hydroxy-indan-1-yl}-carbamic acid tert-butyl ester [Example 672]”: the IC50 in experiment [1] (setting [3]) was less than 100 nM; in experiment [2] (setting [4]) it was 100 to 1000 nM.
